Values of other authors as cited in US11173064B2, “High-precision drug delivery by dual-domain ocular device” (LYNTHERA CORPORATION, priority 2016, dated 2021).
Structures can show the parent of a compound that is named as a salt.

Details: octanol/water

Row | SMILES | log P
1 | CCNC(=O)CCC/C=C\C[C@@H]1[C@@H](/C=C/[C@@H](O)CCc2ccccc2)[C@H](O)C[C@@H]1O [bimatoprost] | ~3.2
2 | CC(C)(C)NC[C@H](O)COc1nsnc1N1CCOCC1 [timolol maleate] | ~1.4
